Measurements reported in patent US5159081A, “Intermediates of peripherally selective N-carbonyl-3,4,4-trisubstituted piperidine opioid antagonists” (Eli Lilly and Company, priority 1991, dated 1992).
Structures can show the parent of a compound that is named as a salt. Where two headings read alike, the source gives them in different places.

How the values were obtained:
mu receptor = molecular target: T1, mu receptor (Rattus norvegicus, UniProt P33535); experiment: Naloxone [3H] opioid receptor binding assay (mu receptor); set-up: species or system rat (male Sprague Dawley)
T1 construct: The brain tissue, rat whole brain minus cerebellum for mu was homogenized; from tissue; host or cells: brain minus cerebellum of male Sprague Dawley rats, homogenate fraction

[1] = system: peripheral opioid receptors; experiment: mouse diarrhea test: precipitated diarrhea in morphine-maintained mice (peripheral opioid activity); type: in vivo
[2] = molecular target: peripheral opioid receptors (Mus musculus, UniProt P42866); experiment: as above; type: in vivo; conditions: mouse diarrhea test, morphine-maintained mice, subcutaneous or oral, 30 min observation
opioid receptor = molecular target: T2, opioid receptor (Mus musculus, UniProt P42866); experiment: in vivo; set-up: species or system CF-1 male mice; conditions: sc
T2 construct: Five CF-1 male mice (Charles River, Portage, MI); from tissue; host or cells: living CF-1 male mice (whole animal, endogenous receptor)

[3] = 20 min, pH 7.4, read-out: % displacement at 10 nM
[4] = 20 min, pH 7.4, read-out: % displacement at 100 nM
[5] = […], rat whole brain minus cerebellum, [3H]naloxone 0.5 nM, pH 7.4, 37° C., 20 min, read-out: Ki
[6] = AD50 mouse writhing / ED50 mouse diarrhea, higher = greater relative peripheral antagonism
[7] = mouse writhing test, […], s.c. 20 min before acetic acid, read-out: AD50 (the source's name)
[8] = 20 min, pH 7.4, 10 nM test compound, [3H]naloxone 0.5 nM, mu receptor, read-out: % displacement at 10 nM
[9] = 20 min, pH 7.4, 100 nM test compound, [3H]naloxone 0.5 nM, mu receptor, read-out: % displacement at 100 nM

peripheral opioid receptors (Mus musculus, UniProt P42866), sequence (P42866 whole entry): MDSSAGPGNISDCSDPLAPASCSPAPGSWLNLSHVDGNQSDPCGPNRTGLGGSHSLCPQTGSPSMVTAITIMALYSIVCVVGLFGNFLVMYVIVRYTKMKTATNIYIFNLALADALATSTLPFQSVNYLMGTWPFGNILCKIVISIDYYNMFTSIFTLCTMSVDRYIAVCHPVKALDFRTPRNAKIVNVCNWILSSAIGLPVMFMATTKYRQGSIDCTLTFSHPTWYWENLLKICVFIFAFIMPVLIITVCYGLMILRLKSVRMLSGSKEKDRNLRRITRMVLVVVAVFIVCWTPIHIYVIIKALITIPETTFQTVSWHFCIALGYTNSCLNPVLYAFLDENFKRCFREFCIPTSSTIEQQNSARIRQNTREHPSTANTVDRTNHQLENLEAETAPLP
T2 sequence (P42866 whole entry): as above
T1 sequence (P33535 whole entry): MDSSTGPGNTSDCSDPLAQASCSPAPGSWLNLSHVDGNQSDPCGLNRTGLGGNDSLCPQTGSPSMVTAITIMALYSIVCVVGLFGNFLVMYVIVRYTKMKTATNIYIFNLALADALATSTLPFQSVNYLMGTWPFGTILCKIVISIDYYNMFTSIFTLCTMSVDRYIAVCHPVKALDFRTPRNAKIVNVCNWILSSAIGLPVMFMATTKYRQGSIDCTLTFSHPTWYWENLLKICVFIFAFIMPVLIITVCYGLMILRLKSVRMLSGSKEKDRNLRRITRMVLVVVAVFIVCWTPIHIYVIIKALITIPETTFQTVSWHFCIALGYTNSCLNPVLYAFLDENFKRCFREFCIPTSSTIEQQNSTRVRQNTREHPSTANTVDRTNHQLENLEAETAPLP

CCOC(=O)CCC(=O)NC(CCN1CC[C@@](C)(c2cccc(O)c2)[C@@H](C)C1)CC(C)C (stereo partly drawn) [Example 2B, 4-[[1-[2-[4-(3-hydroxyphenyl)-3,4-dimethyl-1-piperidinyl]-ethyl]-3-methylbutyl)amino]-4-oxobutanoic acid ethyl ester]
inhibition at 0.01 µM (mu receptor; [3]): 93%
inhibition at 0.1 µM (mu receptor; [4]): 99%
Ki (mu receptor; [5]): 1.2 nM
Ratio (ratio of AD50 to ED50) [1, 6]: 54
ED50 [2]: 0.19 mg/kg
ED50 (opioid receptor; [7]): 10.2 mg/kg

CC(C)CC(CCN1CC[C@@](C)(c2cccc(O)c2)[C@@H](C)C1)NC(=O)CCCC(=O)O (stereo partly drawn) [Example 4, 5-[[1-(2-methylpropyl)-3-[4-(3-hydroxyphenyl)-3,4-dimethyl-1-piperidinyl]propyl]amino]-5-oxopentanoic acid]
Ki (mu receptor): 1.41 nM
inhibition at 0.01 µM (mu receptor; [3]): 86%
inhibition at 0.1 µM (mu receptor; [4]): 94%
Ratio (ratio of AD50 to ED50) ([1]; mouse, in vivo): 250
ED50 [2]: 0.07 mg/kg
ED50 (opioid receptor; mouse, read-out: AD50): 17.5 mg/kg

CCOC(=O)CC(=O)N[C@H](Cc1ccccc1)CN1CC[C@@](C)(c2cccc(O)c2)[C@@H](C)C1 [Example 10, Ethyl trans-(3R,4R,R)-3-((2-(4-(3-hydroxyphenyl)-3,4-dimethyl-1-piperidinyl)-1-(D-(phenylmethyl)ethyl)amino))-3-oxopropionate hydrochloride]
inhibition at 0.01 µM (mu receptor; [3]): 61%
inhibition at 0.1 µM (mu receptor; [4]): 94%
Ki (mu receptor; [5]): 1.46 nM
Ratio (ratio of AD50 to ED50) [1, 6]: 78
ED50 [2]: 0.12 mg/kg
ED50 (opioid receptor; [7]): 9.3 mg/kg

C[C@H]1CN(C[C@@H](Cc2ccccc2)NC(=O)CC(=O)O)CC[C@@]1(C)c1cccc(O)c1 [Example 11, Trans-3-((2-(4-(3-hydroxyphenyl)-3,4-dimethyl-1-piperidinyl)-1-(D-(phenylmethyl)ethyl)amino))-3-oxopropionic acid]
inhibition at 0.01 µM (mu receptor; [8]): 36%
inhibition at 0.1 µM (mu receptor; [9]): 80%
Ratio (ratio of AD50 to ED50) [1, 6]: 41
ED50 ([2]; 0.5 h, read-out: ED50): 0.3 mg/kg
ED50 (opioid receptor; [7]): 12.4 mg/kg

CCOC(=O)CC(=O)N[C@H](Cc1ccccc1)CN1CC[C@](C)(c2cccc(O)c2)[C@H](C)C1 [Example 12, Ethyl trans-3-((2-(4-(3-hydroxyphenyl)-3,4-dimethyl-1-piperidinyl)-1-(D-(phenylmethyl)ethyl)amino))-3-oxopropionate hydrochloride]
inhibition at 0.01 µM (mu receptor; [3]): 43%
inhibition at 0.1 µM (mu receptor; [4]): 87%
Ratio (ratio of AD50 to ED50) ([1]; mouse, in vivo): 100
ED50 [2]: 0.20 mg/kg
ED50 (opioid receptor; [7]): 20 mg/kg

C[C@@H]1CN(C[C@@H](Cc2ccccc2)NC(=O)CC(=O)O)CC[C@]1(C)c1cccc(O)c1 [Example 13, Trans-3-((2-(4-(3-hydroxyphenyl)-3,4-dimethyl-1-piperidinyl)-1-(D-(phenylmethyl)ethyl)amino))-3-oxopropionic acid monohydrate]
inhibition at 0.01 µM (mu receptor; [8]): 24%
inhibition at 0.1 µM (mu receptor; [9]): 72%
Ratio (ratio of AD50 to ED50) [1, 6]: > 138
ED50 ([2]; 0.5 h, read-out: ED50): 0.29 mg/kg
ED50 (opioid receptor; [7]): > 40 mg/kg

CCNC(=O)N[C@H](Cc1ccccc1)CN1CC[C@](C)(c2cccc(O)c2)[C@H](C)C1 [Example 17, N-Ethyl-N'-2-(D-(1-(trans-4-(3-hydroxyphenyl)-3,4-dimethyl-1-piperidinyl)-3-phenyl)propyl)urea hydrochloride monohydrate]
inhibition at 0.01 µM (mu receptor; [8]): 38%
inhibition at 0.1 µM (mu receptor; [9]): 82%
Ratio (ratio of AD50 to ED50) [1, 6]: > 12
ED50 ([2]; 0.5 h, read-out: ED50): 3.28 mg/kg
ED50 (opioid receptor; [7]): > 40 mg/kg

C[C@H]1CN(CC(Cc2ccccc2)NC(=O)CCCNC(=O)OC(C)(C)C)CC[C@@]1(C)c1cccc(O)c1 (stereo partly drawn) [Example 18, Trans-(4-((1-((4-(3-hydroxyphenyl)-3,4-dimethyl-1-piperidinyl)methyl)-2-phenylethyl)amino)-4-oxobutyl) carbamic acid, 1,1 dimethylethyl ester monohydrochloride]
inhibition at 0.01 µM (mu receptor; [3]): 86%
inhibition at 0.1 µM (mu receptor; [4]): 100%
Ki (mu receptor; [5]): 0.63 nM
Ratio (ratio of AD50 to ED50) [1, 6]: 4.5
ED50 [2]: 0.30 mg/kg
ED50 (opioid receptor; [7]): 1.31 mg/kg

CC(=O)NC(CCCNC(=N)N[N+](=O)[O-])C(=O)NCCN1CCC(C)(c2cccc(O)c2)C(C)C1 (stereo not drawn) [Example 42, N-(2-(trans-4-(3-hydroxyphenyl)-3,4-dimethyl-1-piperidinyl)ethyl)-2-(acetylamino)-5-((imino(nitroamino)-methyl)amino)pentanamide monohydrate]
inhibition at 0.01 µM (mu receptor; [8]): 44%
inhibition at 0.1 µM (mu receptor; [9]): 89%
Ratio (ratio of AD50 to ED50) [1, 6]: > 160
ED50 ([2]; 0.5 h, read-out: ED50): 0.12 mg/kg
ED50 (opioid receptor; [7]): > 20 mg/kg

CC(C)CC(=O)NC(CCCNC(=N)N[N+](=O)[O-])C(=O)NCCN1CCC(C)(c2cccc(O)c2)C(C)C1 (stereo not drawn) [Example 43, Trans-N-(2-(4-(3-hydroxyphenyl)-3,4-dimethyl-1-piperidinyl)ethyl)-2-((3-methyl-1-oxobutyl)amino)-5-((imino(nitroamino)methyl)amino) pentanamide]
inhibition at 0.01 µM (mu receptor; [8]): 59%
inhibition at 0.1 µM (mu receptor; [9]): 97%
Ratio (ratio of AD50 to ED50) [1, 6]: > 10
ED50 ([2]; 0.5 h, read-out: ED50): < 1 mg/kg
ED50 (opioid receptor; [7]): > 10 mg/kg

CC1CN(CCNC(=O)[C@H](CCCNC(=N)N[N+](=O)[O-])NC(=O)OC(C)(C)C)CCC1(C)c1cccc(O)c1 (stereo partly drawn) [Example 44, (1-(((2-(Trans-4-(3-hydroxyphenyl)-3,4-dimethyl-1-piperidinyl)ethyl)amino)carbonyl)-4-((imino(nitroamino)methyl)amino)butyl) carbamic acid, 1,1-dimethylethyl ester]
inhibition at 0.01 µM (mu receptor; [3]): 63%
inhibition at 0.1 µM (mu receptor; [4]): 85%
Ki (mu receptor; [5]): 2.34 nM
Ratio (ratio of AD50 to ED50) [1, 6]: > 30
ED50 [2]: 0.07 mg/kg
ED50 (opioid receptor; [7]): > 2 mg/kg

C[C@H]1CN(C[C@H](CC2CCCCC2)NC(=O)CCCC(=O)O)CC[C@@]1(C)c1cccc(O)c1 [Example 45D]
inhibition at 0.01 µM (mu receptor; [3]): 82%
inhibition at 0.1 µM (mu receptor; [4]): 94%
Ki (mu receptor; [5]): 0.56 nM
Ratio (ratio of AD50 to ED50) [1, 6]: > 1379
ED50 [2]: 0.029 mg/kg
ED50 (opioid receptor; [7]): > 40 mg/kg
